Experimental data as given in PubChem BioAssay AID1963981 (Molecular Pharmacology Branch, DTP, NCI, 2024).
Values belong to the compound of their own block, whether it stands above or below them.

System: 354836-022-R-J1-PDC multicell spheroid viability
Assay: Anticancer human tumor 354836-022-R-J1-PDC patient-derived head and neck squamous cell carcinoma cell line growth inhibition [PI3K]
Conditions: for viability, T/C: stronger effect = lower value
Source text: Combinatorial screen of targeted agents with the PI3K inhibitors inavolisib, alpelisib, duvelisib, and copanlisib in multi-cell type tumor spheroids
A high-throughput screen of multi-cell type tumor spheroids was designed to identify active combinations of targeted small molecules and PI3K pathway inhibitors. Complex spheroids include a stromal component modeled by human endothelial cells (HUVEC) and fibroblasts modeled by human mesenchymal stem cells (MSCs). The concentration ranges selected for each drug and investigational agent were based upon clinically achievable concentrations if the clinical Cmax of the agent was known.
Compounds. The drugs and investigational agents: inavolisib (NSC800729), alpelisib (NSC765974), duvelisib (NSC772469), copanlisib (NSC816437), ipatasertib (NSC767898), afuresertib (NSC778305), talazoparib (NSC767125), sapanisertib (NSC764658), selumetinib (NSC741078), tovorafenib (DAY101, NSC766906), vemurafenib (NSC761431), ravoxertinib (NSC781343), sotorasib (NSC818433), MRTX1133 (NSC 836407), abemaciclib (NSC 768073), palbociclib (NSC758247), venetoclax (NSC 766270), SY5609 (NSC837396), enzalutamide (NSC755605), and darolutamide (NSC825331), were obtained from the National Cancer Institute (NCI) Developmental Therapeutics Program Chemical Repository. The FDA-approved anticancer drug set is available from the NCI Developmental Therapeutics Program. […] The stock solutions were prepared in dimethyl sulfoxide (DMSO, Sigma-Aldrich, St. Louis, MO, cat. D2650) at 800-fold the tested concentration and stored at -70 degrees C prior to their use. All drugs and investigational agents were tested over a range starting from a high concentration at or near the clinical Cmax and decreasing in half-log increments. If the clinical Cmax for an agent had not been determined, the highest concentration tested was 10 microM.
Cell Culture. All cells were maintained in an incubator at 37 degrees C and 5% CO2 with 95% humidity. The PDC lines were cultured according to standard operating procedures established by the NCI PDMR (https://pdmr.cancer.gov/sops/default.htm). All PDCs were thawed and cultured in Matrigel-coated flasks prepared with a working solution of 1X Ham's F-12 nutrient mix, without supplementation (Invitrogen, Waltham, MA, cat. 11765054), 100 U/mL penicillin-streptomycin (Invitrogen, cat. 15140122), and 2.5% Matrigel (Corning Inc., Corning, NY, cat. 354248) for the first three passages. The 354836-022-R-J1-PDC, 475296-252-R-J1-PDC, and 997726-040-R-J2-PDC lines were cultured in 6A media, which includes advanced DMEM/F-12 (Thermo Fisher Scientific, cat. 12634028), 10 mM HEPES (Thermo Fisher Scientific, cat. 15630080), 1X GlutaMAX supplement (Thermo Fisher Scientific, cat. 35050061), 0.1 mg/mL primocin (InvivoGen, San Diego, CA, cat. ant-pm-2), 10% defined fetal bovine serum, heat inactivated (HyClone Laboratories Inc., Logan, UT, cat. SH30070.03HI), 50% L-WRN conditioned media (ATCC, cat. CRL-3276), 1.25 mM N-Acetyl-L-cysteine (Sigma-Aldrich, cat. A9165), 10 mM nicotinamide (Sigma-Aldrich, cat. N0636), 1X B-27 supplement (Thermo Fisher Scientific, cat. 17504044), 1X N-2 supplement (Thermo Fisher Scientific, cat. 17502048), and 10 microM Y-27632 dihydrochloride (Tocris Bioscience, Bristol, United Kingdom, cat. 1254). The 624824-186-R-J2-PDC line was cultured in 6C/Colon 1B media, which includes all 6A media components plus 50 ng/mL human EGF recombinant protein (Thermo Fisher Scientific, cat. PHG0311). […]

[1] = curve of first compound, second compound 0.00316 µM
[2] = curve of first compound, second compound 0.01 µM
[3] = curve of first compound, second compound 0.0316 µM
[4] = curve of first compound, second compound 0.1 µM
[5] = curve of first compound, second compound 0.316 µM
[6] = curve of first compound, second compound 1 µM
[7] = second compound 0.00316 µM, first compound 0.0316 µM
[8] = second compound 0.00316 µM, first compound 0.1 µM
[9] = second compound 0.00316 µM, first compound 0.316 µM
[10] = second compound 0.00316 µM, first compound 1 µM
[11] = second compound 0.00316 µM, first compound 3.16 µM
[12] = second compound 0.00316 µM, first compound 10 µM
[13] = second compound 0.01 µM, first compound 0.0316 µM
[14] = second compound 0.01 µM, first compound 0.1 µM
[15] = second compound 0.01 µM, first compound 0.316 µM
[16] = second compound 0.01 µM, first compound 1 µM
[17] = second compound 0.01 µM, first compound 3.16 µM
[18] = second compound 0.01 µM, first compound 10 µM
[19] = second compound 0.0316 µM, first compound 0.0316 µM
[20] = second compound 0.0316 µM, first compound 0.1 µM
[21] = second compound 0.0316 µM, first compound 0.316 µM
[22] = second compound 0.0316 µM, first compound 1 µM
[23] = second compound 0.0316 µM, first compound 3.16 µM
[24] = second compound 0.0316 µM, first compound 10 µM
[25] = second compound 0.1 µM, first compound 0.0316 µM
[26] = second compound 0.1 µM, first compound 0.1 µM
[27] = second compound 0.1 µM, first compound 0.316 µM
[28] = second compound 0.1 µM, first compound 1 µM
[29] = second compound 0.1 µM, first compound 3.16 µM
[30] = second compound 0.1 µM, first compound 10 µM
[31] = second compound 0.316 µM, first compound 0.0316 µM
[32] = second compound 0.316 µM, first compound 0.1 µM
[33] = second compound 0.316 µM, first compound 0.316 µM
[34] = second compound 0.316 µM, first compound 1 µM
[35] = second compound 0.316 µM, first compound 3.16 µM
[36] = second compound 0.316 µM, first compound 10 µM
[37] = second compound 1 µM, first compound 0.0316 µM
[38] = second compound 1 µM, first compound 0.1 µM
[39] = second compound 1 µM, first compound 0.316 µM
[40] = second compound 1 µM, first compound 1 µM
[41] = second compound 1 µM, first compound 3.16 µM
[42] = second compound 1 µM, first compound 10 µM
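Note: spheroids exposed to agents for seven days before the viability read.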

IC50 [1]: 6.95 µM | IC50 [2]: 5.96 µM | IC50 [3]: 6.55 µM | IC50 [4]: 5.52 µM | IC50 [5]: 4.22 µM | IC50 [6]: 3.9 µM
Compound: CCCS(=O)(=O)Nc1ccc(F)c(C(=O)c2c[nH]c3ncc(-c4ccc(Cl)cc4)cc23)c1F + CC(Nc1ccc2c(c1)OCCn1cc(N3C(=O)OCC3C(F)F)nc1-2)C(N)=O
viability, T/C [7]: 103% | viability, T/C [8]: 131% | viability, T/C [9]: 107% | viability, T/C [10]: 92.7% | viability, T/C [11]: 90.5% | viability, T/C [12]: 32.7% | viability, T/C [13]: 106% | viability, T/C [14]: 93.2% | viability, T/C [15]: 117% | viability, T/C [16]: 90.5% | viability, T/C [17]: 78.5% | viability, T/C [18]: 27.5% | viability, T/C [19]: 95.6% | viability, T/C [20]: 111% | viability, T/C [21]: 95.2% | viability, T/C [22]: 105% | viability, T/C [23]: 93% | viability, T/C [24]: 24.8% | viability, T/C [25]: 85.8% | viability, T/C [26]: 73.5% | viability, T/C [27]: 81.8% | viability, T/C [28]: 86.3% | viability, T/C [29]: 79.4% | viability, T/C [30]: 18.6% | viability, T/C [31]: 69.6% | viability, T/C [32]: 68.2% | viability, T/C [33]: 78.4% | viability, T/C [34]: 84.5% | viability, T/C [35]: 61.8% | viability, T/C [36]: 15.1% | viability, T/C [37]: 54% | viability, T/C [38]: 54.1% | viability, T/C [39]: 66.1% | viability, T/C [40]: 55.5% | viability, T/C [41]: 63.4% | viability, T/C [42]: 11.1%

IC50 (curve of compound): < 0.0316 µM
Compound: CC1(C)CCC(Nc2ncc(C(F)(F)F)c(-c3c[nH]c4c(P(C)(C)=O)c(C#N)ccc34)n2)CN1 (stereo not drawn)
viability, T/C (compound 0.0316 µM): 21.9% [middle of 4 runs] | viability, T/C (compound 0.1 µM): 19.9% [middle of 4 runs] | viability, T/C (compound 0.316 µM): 20.8% [middle of 4 runs] | viability, T/C (compound 1 µM): 21.9% [middle of 4 runs] | viability, T/C (compound 3.16 µM): 32% [middle of 4 runs] | viability, T/C (compound 10 µM): 2.79% [middle of 4 runs]

IC50 [3]: > 10 µM | IC50 [4]: > 10 µM | IC50 [5]: > 10 µM | IC50 [6]: > 10 µM | IC50 (curve of first compound, second compound 3.16 µM): > 10 µM | IC50 (curve of first compound, second compound 10 µM): > 10 µM
Compound: CNC(=O)c1ccc(N2C(=S)N(c3ccc(C#N)c(C(F)(F)F)c3)C(=O)C2(C)C)cc1F + CC(Nc1ncnc2nc[nH]c12)c1cc2cccc(Cl)c2c(=O)n1-c1ccccc1
viability, T/C [19]: 97.4% | viability, T/C [20]: 99.1% | viability, T/C [21]: 92.9% | viability, T/C [22]: 93% | viability, T/C [23]: 109% | viability, T/C [24]: 95.8% | viability, T/C [25]: 95.2% | viability, T/C [26]: 113% | viability, T/C [27]: 109% | viability, T/C [28]: 104% | viability, T/C [29]: 94.4% | viability, T/C [30]: 93.8% | viability, T/C [31]: 100% | viability, T/C [32]: 97.8% | viability, T/C [33]: 97.6% | viability, T/C [34]: 109% | viability, T/C [35]: 105% | viability, T/C [36]: 91.5% | viability, T/C [37]: 97% | viability, T/C [38]: 92.4% | viability, T/C [39]: 95.9% | viability, T/C [40]: 117% | viability, T/C [41]: 93.6% | viability, T/C [42]: 95% | viability, T/C (second compound 3.16 µM, first compound 0.0316 µM): 105% | viability, T/C (second compound 3.16 µM, first compound 0.1 µM): 106% | viability, T/C (second compound 3.16 µM, first compound 0.316 µM): 105% | viability, T/C (second compound 3.16 µM, first compound 1 µM): 108% | viability, T/C (second compound 3.16 µM, first compound 3.16 µM): 85.2% | viability, T/C (second compound 3.16 µM, first compound 10 µM): 95.5% | viability, T/C (second compound 10 µM, first compound 0.0316 µM): 89.3% | viability, T/C (second compound 10 µM, first compound 0.1 µM): 86.5% | viability, T/C (second compound 10 µM, first compound 0.316 µM): 94.5% | viability, T/C (second compound 10 µM, first compound 1 µM): 97% | viability, T/C (second compound 10 µM, first compound 3.16 µM): 95.3% | viability, T/C (second compound 10 µM, first compound 10 µM): 86.6%

IC50 [1]: > 10 µM | IC50 [2]: > 10 µM | IC50 [3]: > 10 µM | IC50 [4]: > 10 µM | IC50 [5]: > 10 µM | IC50 [6]: > 10 µM
Compound: C=CC(=O)N1CCN(c2nc(=O)n(-c3c(C)ccnc3C(C)C)c3nc(-c4c(O)cccc4F)c(F)cc23)C(C)C1 (stereo not drawn) + CC(Nc1ccc2c(c1)OCCn1cc(N3C(=O)OCC3C(F)F)nc1-2)C(N)=O
viability, T/C [7]: 100% | viability, T/C [8]: 81.7% | viability, T/C [9]: 98.7% | viability, T/C [10]: 94.5% | viability, T/C [11]: 106% | viability, T/C [12]: 113% | viability, T/C [13]: 101% | viability, T/C [14]: 91.8% | viability, T/C [15]: 93.1% | viability, T/C [16]: 95.3% | viability, T/C [17]: 103% | viability, T/C [18]: 91% | viability, T/C [19]: 95.7% | viability, T/C [20]: 112% | viability, T/C [21]: 86.9% | viability, T/C [22]: 111% | viability, T/C [23]: 115% | viability, T/C [24]: 92.2% | viability, T/C [25]: 77.9% | viability, T/C [26]: 94.3% | viability, T/C [27]: 95.2% | viability, T/C [28]: 124% | viability, T/C [29]: 88.5% | viability, T/C [30]: 89.7% | viability, T/C [31]: 68.2% | viability, T/C [32]: 75.9% | viability, T/C [33]: 81.5% | viability, T/C [34]: 68.1% | viability, T/C [35]: 87.7% | viability, T/C [36]: 70.6% | viability, T/C [37]: 63.9% | viability, T/C [38]: 63.2% | viability, T/C [39]: 65.1% | viability, T/C [40]: 74% | viability, T/C [41]: 68.3% | viability, T/C [42]: 55.6%
